Source: patent US5807981A (FibroGen Inc., priority 1995, dated 1998)
Residues, ends and D or L forms follow the SMILES beside them.

Target: T1, C-proteinase (Homo sapiens, UniProt P13497)
T1 sequence (P13497 121-986): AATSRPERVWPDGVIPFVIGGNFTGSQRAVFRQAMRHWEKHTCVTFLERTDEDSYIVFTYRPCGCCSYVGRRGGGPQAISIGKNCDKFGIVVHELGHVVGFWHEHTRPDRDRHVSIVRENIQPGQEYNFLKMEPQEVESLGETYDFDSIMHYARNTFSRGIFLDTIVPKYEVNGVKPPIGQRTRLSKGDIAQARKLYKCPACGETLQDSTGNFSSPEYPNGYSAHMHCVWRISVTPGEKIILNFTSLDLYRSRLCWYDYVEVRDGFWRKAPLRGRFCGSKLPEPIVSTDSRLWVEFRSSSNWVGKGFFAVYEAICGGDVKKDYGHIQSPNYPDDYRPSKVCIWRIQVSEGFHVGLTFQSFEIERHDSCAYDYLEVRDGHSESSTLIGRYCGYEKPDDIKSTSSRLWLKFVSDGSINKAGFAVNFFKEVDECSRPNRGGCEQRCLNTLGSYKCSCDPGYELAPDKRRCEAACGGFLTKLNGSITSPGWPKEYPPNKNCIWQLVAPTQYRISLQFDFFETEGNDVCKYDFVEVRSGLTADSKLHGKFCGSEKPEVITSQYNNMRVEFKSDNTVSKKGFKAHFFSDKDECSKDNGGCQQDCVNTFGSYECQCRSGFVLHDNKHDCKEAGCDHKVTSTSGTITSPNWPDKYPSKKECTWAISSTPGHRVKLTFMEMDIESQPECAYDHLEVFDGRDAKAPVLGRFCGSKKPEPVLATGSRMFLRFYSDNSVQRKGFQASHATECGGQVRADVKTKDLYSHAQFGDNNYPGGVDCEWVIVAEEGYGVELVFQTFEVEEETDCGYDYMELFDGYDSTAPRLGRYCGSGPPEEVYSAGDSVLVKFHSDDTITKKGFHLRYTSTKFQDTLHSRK
Experiment: Cleavage of synthetic procollagen cleavage-site peptides by active C-proteinase
Assay type: biochemical
Details: for Cleavability: Table 1, cleavability of peptides resembling the C-proteinase cleavage site of procollagen; for cleavability by C-proteinase: truncated and extended peptides compared with original peptide SEQ ID NO:6
Description: A variety of short peptides comprising five (5) to twelve (12) amino acids was synthesized and tested for cleavage by active C-proteinase.
First, four peptides, each comprising eight (8) amino acids corresponding to the cleavage region of several procollagens were synthesized. See, TABLE 1, SEQ ID NO:3, SEQ ID NO:4, SEQ ID NO:5, and SEQ ID NO:6. All four peptides were examined for cleavability by C-proteinase. […] Indeed, one would expect that recognition of the cleavage site depends on structural requirements which cannot be resembled by only eight (8) amino acids.
Second, a series of peptides was prepared based on the sequence of original peptide SEQ ID NO:6. Specifically, peptides were designed resembling the core of the peptide comprising SEQ ID NO:6, but with truncations of one, two and three amino acids from either side of the cleavage site. A further peptide was synthesized resembling two additional amino acids at both the N-terminus and C-terminus of the original peptide comprising SEQ ID NO:6.
Removing two or more amino acids from either end of the original SEQ ID NO:6 sequence, however, yielded a non-cleavable peptide (SEQ ID NOS:9, 10, 12, 13).

Row | Cleavability | cleavability by C-proteinase | SMILES
1 | none | non-cleavable | CC(=O)N1CCC[C@H]1C(=O)N[C@@H](Cc1ccc(O)cc1)C(=O)N[C@@H](Cc1ccc(O)cc1)C(=O)NCC(=O)N[C@@H](CC(=O)O)C(=O)N[C@@H](CCC(=O)O)C(N)=O [SEQ ID NO:9, Ac-PYYG-DE-NH2] (Ac-PYYGDE-NH2)
2 | none | non-cleavable | CC(=O)N1CCC[C@H]1C(=O)N[C@@H](Cc1ccc(O)cc1)C(=O)N[C@@H](Cc1ccc(O)cc1)C(=O)NCC(=O)N[C@@H](CC(=O)O)C(N)=O [SEQ ID NO:10, Ac-PYYG-D-NH2] (Ac-PYYGD-NH2)
3 | none | non-cleavable | CSCC[C@H](NC(=O)[C@@H]1CCCN1C(=O)[C@H](CCC(=O)O)NC(=O)[C@H](CC(=O)O)NC(=O)CNC(=O)[C@H](Cc1ccc(O)cc1)NC(C)=O)C(N)=O [SEQ ID NO:12, Ac-YG-DEPM-NH2] (Ac-YGDEPM-NH2)
4 | none | non-cleavable | CSCC[C@H](NC(=O)[C@@H]1CCCN1C(=O)[C@H](CCC(=O)O)NC(=O)[C@H](CC(=O)O)NC(=O)CNC(C)=O)C(N)=O [SEQ ID NO:13, Ac-G-DEPM-NH2] (Ac-GDEPM-NH2)

Row | SMILES | Cleavability | cleavability by C-proteinase
5 | CC(=O)N1CCC[C@H]1C(=O)N[C@@H](Cc1ccc(O)cc1)C(=O)N[C@@H](Cc1ccc(O)cc1)C(=O)NCC(=O)N[C@@H](CC(=O)O)C(=O)N[C@@H](CCC(=O)O)C(=O)N1CCC[C@H]1C(N)=O [SEQ ID NO:8, Ac-PYYG-DEP-NH2] (Ac-PYYGDEP-NH2) | excellent | did not drastically alter its cleavability
6 | CSCC[C@H](NC(=O)[C@@H]1CCCN1C(=O)[C@H](CCC(=O)O)NC(=O)[C@H](CC(=O)O)NC(=O)CNC(=O)[C@H](Cc1ccc(O)cc1)NC(=O)[C@H](Cc1ccc(O)cc1)NC(C)=O)C(N)=O [SEQ ID NO:11, Ac-YYG-DEPM-NH2] (Ac-YYGDEPM-NH2) | excellent | did not drastically alter its cleavability
